Paper PMC6270864, “Identification of Two Novel α1-AR Agonists Using a High-Throughput Screening Model” (Molecules, 2014)

How the values were obtained:
[1] = target: T1, human α1A-adrenoceptor (ADRA1A) expressed in HEK293 cells (Homo sapiens, UniProt P35348); assay: Dual-luciferase CRE reporter HTS assay, inhibition of PE-induced CRE activation (RIP); type: cell-based; conditions: relative inhibitory potency = (RLU PE alone − RLU PE+antagonist)/RLU PE alone
T1 construct: eGFP; host or cells: HEK293 (transient, Lipofectamine 2000)
T1 sequence (P35348 1-466): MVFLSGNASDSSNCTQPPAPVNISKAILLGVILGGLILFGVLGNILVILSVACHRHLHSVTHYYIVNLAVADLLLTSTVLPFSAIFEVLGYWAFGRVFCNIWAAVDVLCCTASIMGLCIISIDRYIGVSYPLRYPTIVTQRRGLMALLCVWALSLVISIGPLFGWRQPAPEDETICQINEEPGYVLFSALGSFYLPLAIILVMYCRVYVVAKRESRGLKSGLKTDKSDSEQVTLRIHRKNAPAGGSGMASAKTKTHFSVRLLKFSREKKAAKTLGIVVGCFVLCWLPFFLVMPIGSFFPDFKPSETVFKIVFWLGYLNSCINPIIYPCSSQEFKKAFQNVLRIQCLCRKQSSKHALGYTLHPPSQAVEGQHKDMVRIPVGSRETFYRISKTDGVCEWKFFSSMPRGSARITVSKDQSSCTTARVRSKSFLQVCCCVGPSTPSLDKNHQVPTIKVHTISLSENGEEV
Description: (§1) Furthermore, the relative inhibitory potency (RIP) could be used to improve the readability of the results. Which was determined relative to that of PE-induced group ([…]), and calculated using the following formula [15]: RIP = (RLUPE alone − RLUPE+antagonist)/RLUPE alone(1)
(§2) HEK293 cells were plated at a density of 10^5 […] in 96-well plates in 100 μL of DMEM basic medium containing 10% fetal bovine serum, 100 U/mL penicillin, and 0.1 mg/mL streptomycin. After overnight incubation, human ADRA1-expression vectors, namely, ADRA1A, ADRA1B, and ADRA1D, were co-transfected with reporter vectors (CRE, SRE, AP1, NFAT, and NF-кB) and pGL4.74 [hRluc/TK] (included as a control for transfection efficiency) using Lipofectamine 2000 transfection reagent (Invitrogen Life Technologies, Carlsbad, CA, USA). The medium was removed after 4 h and replaced with high-glucose DMEM for 18 h. Cells were then treated with agonists (at concentrations of 0.01–20 μM) and incubated for 8 h.
(§3) Firefly and Renilla luciferase activities, which are indicated as RLUs, were determined using Dual-Glo luciferase assay kits (Promega) according to the manufacturer’s instructions. RLUs were measured using a luminometer (GloMaxTM 96-Microplate Luminometer, Promega) and are reported as the mean ± SEM of three individual experiments. For agonists, fold of induction = RLUinduced/RLUuninduced. For antagonists, % of control = 100 × RLU (agonist + antagonist)/RLU(agonist alone). All RLUs were normalized against firefly RLUs/Renilla RLUs. […] The pKB of the antagonist was calculated by plotting log (dose ratio–1) against the antagonist dose (μM) and subjecting the data to Schild regression, where the intercept of the x-axis represents the pKB.

[2] = target: T2, human α1B-adrenoceptor (ADRA1B) expressed in HEK293 cells (Homo sapiens, UniProt P35368); assay: as above; type: cell-based; conditions: relative inhibitory potency = (RLU PE alone − RLU PE+antagonist)/RLU PE alone
T2 construct: eGFP; host or cells: HEK293 (transient, Lipofectamine 2000)
T2 sequence (P35368 1-520): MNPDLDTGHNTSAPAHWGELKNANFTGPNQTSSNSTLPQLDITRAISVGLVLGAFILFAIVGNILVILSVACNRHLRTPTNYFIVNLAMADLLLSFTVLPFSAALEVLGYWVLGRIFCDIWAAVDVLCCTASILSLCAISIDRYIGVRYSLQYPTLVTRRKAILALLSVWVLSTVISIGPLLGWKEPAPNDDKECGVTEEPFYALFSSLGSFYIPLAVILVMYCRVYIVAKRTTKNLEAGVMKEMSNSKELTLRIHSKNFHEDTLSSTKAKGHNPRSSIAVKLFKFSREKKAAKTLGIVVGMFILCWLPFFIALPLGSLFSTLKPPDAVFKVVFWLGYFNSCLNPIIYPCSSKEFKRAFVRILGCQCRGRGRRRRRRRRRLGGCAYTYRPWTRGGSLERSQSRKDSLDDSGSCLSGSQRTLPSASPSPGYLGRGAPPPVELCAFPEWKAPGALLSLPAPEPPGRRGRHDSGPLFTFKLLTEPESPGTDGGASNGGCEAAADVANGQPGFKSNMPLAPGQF
Description: as §1, §2, §3

[3] = target: T3, human α1D-adrenoceptor (ADRA1D) expressed in HEK293 cells (Homo sapiens, UniProt P25100); assay: as above; type: cell-based; conditions: relative inhibitory potency = (RLU PE alone − RLU PE+antagonist)/RLU PE alone
T3 construct: eGFP; host or cells: HEK293 (transient, Lipofectamine 2000)
T3 sequence (P25100 1-572): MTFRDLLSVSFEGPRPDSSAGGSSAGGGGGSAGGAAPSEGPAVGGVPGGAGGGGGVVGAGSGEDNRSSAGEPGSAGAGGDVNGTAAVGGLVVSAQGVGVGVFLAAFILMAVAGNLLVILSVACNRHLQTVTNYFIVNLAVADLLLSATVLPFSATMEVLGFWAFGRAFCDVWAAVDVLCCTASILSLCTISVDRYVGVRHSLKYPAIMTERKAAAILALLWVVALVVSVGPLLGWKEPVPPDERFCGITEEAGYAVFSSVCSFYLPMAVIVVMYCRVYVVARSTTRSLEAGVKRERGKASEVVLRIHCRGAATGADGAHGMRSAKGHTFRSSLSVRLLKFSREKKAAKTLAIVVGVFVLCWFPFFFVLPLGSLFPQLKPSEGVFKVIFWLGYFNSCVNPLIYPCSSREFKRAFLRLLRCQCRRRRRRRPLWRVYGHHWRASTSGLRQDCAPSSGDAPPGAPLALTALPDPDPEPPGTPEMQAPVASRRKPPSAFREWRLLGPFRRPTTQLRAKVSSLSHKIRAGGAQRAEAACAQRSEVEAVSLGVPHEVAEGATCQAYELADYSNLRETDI
Description: as §1, §2, §3

[4] = target: T2, human α1B-adrenoceptor (ADRA1B) expressed in HEK293 cells; assay: Dual-luciferase CRE reporter HTS assay, agonist mode; type: cell-based; conditions: HEK293, 8 h, read-out: EC50 α1B (agonistic activity)
Description: as §2, §3

[5] = target: T3, human α1D-adrenoceptor (ADRA1D) expressed in HEK293 cells; assay: as above; type: cell-based; conditions: HEK293, 8 h, read-out: EC50 α1D (agonistic activity)
Description: as §2, §3

[6] = tested on: DU145 human prostate cancer cell line; assay: CCK-8 assay, cytotoxic / anti-proliferative activity; type: cell-based; conditions: DU-145, CCK-8, 24 h exposure, mean ± SD, three experiments
Description: (§4) Cell proliferation was measured with the Cell Counting Kit-8 (CCK-8) assay kit (Dojindo Corp., Kumamoto, Japan). Cells were harvested during logarithmic growth phase and seeded in 96-well plates at a density of 1 × 10^5 cells/mL, and cultured at 37 °C in a humidified incubator (5% CO2) for 24 h, followed by exposure to various concentrations of compounds tested for 24 h. Subsequently 10 μL of CCK-8 (Dojindo) was added to each well, the cells were then incubated for an additional 1 h at 37 °C to convert WST-8 into formazan. Cell growth inhibition was determined by measuring the absorbance (Abs) at λ = 450 nm using amicroplate reader. Three independent experiments were performed. Cell growth inhibition was calculated according to the following equation: Growth inhibition = (1 − OD of treated cells/OD of control cells) × 100% (2)
(§5) The half maximal inhibitory concentrations (IC50) were obtained from liner regression analysis of the concentration-response curves plotted for each tested compound.

[7] = tested on: LNCaP human prostate cancer cell line; assay: as above; type: cell-based; conditions: CCK-8, 24 h exposure, mean ± SD, three experiments
Description: as §4, §5

[8] = tested on: PC-3 human prostate cancer cell line; assay: as above; type: cell-based; conditions: CCK-8, 24 h exposure, mean ± SD, three experiments
Description: as §4, §5

[9] = tested on: RWPE-1 human prostate epithelial cell line; assay: as above; type: cell-based; conditions: for cytotoxic effects on human epithelial prostate normal cells RWPE-1: CCK-8; for IC50: Homo sapiens, RWPE-1, CCK-8, 24 h exposure, mean ± SD, three experiments
Description: as §4, §5

[10] = tested on: α1-ARs (α1A, α1B, and α1D); assay: Dual-luciferase CRE reporter HTS assay, agonist mode, summary over subtypes; type: cell-based, human; conditions: for EC50: range over the three subtypes and both compounds, read-out: EC50, agonistic activities on α1-ARs (α1A, α1B, and α1D)
Description: as §2, §3

[11] = tested on: human prostate cancer cell lines (PC-3, LNCaP and DU145); assay: CCK-8 assay, summary over tested cancer cell lines; type: cell-based; conditions: range over PC-3, LNCaP, DU145 and both compounds, read-out: IC50, cytotoxic activities against tested cancer cell lines
Description: as §4, §5

[12] = target: T1, human α1A-adrenoceptor (ADRA1A) expressed in HEK293 cells; assay: Dual-luciferase CRE reporter HTS assay, agonist mode; type: cell-based; conditions: HEK293, 8 h, read-out: EC50 α1A (agonistic activity)
Description: as §2, §3

[13] = tested on: α1-ARs (α1A, α1B, α1D); conditions: α1-AR subtype selectivity, cited from earlier work

| RIP Values (Mean ± S.E.M, n = 4) α1A [1] | RIP Values (Mean ± S.E.M, n = 4) α1B [2] | RIP Values (Mean ± S.E.M, n = 4) α1D [3] | EC50 [5] | SMILES | IC50 [6] | IC50 [7] | IC50 [8] | IC50 [9] | further results |
| --- | --- | --- | --- | --- | --- | --- | --- | --- | --- |
| – | – | – | 2.68 µM | CNC[C@H](O)c1cccc(O)c1 [Phenylephrine, phenylephrine, reference compound] | – | – | – | – | – |
| 0.89 ± 0.05 | 0.91 ± 0.02 | 0.49 ± 0.02 | – | COc1cc2nc(N3CCN(C(=O)C4CCCO4)CC3)nc(N)c2cc1OC (stereo not drawn) [Terazosin, terazosin] | – | – | – | – | Reported Selectivity [13]: Nonselective [17]; Reported Selectivity (Table S1) ([13]; ref 2 (supplement)): Nonselective |

Further lines, the compound ahead of its results:

| SMILES | RIP Values (Mean ± S.E.M, n = 4) α1A [1] | RIP Values (Mean ± S.E.M, n = 4) α1B [2] | RIP Values (Mean ± S.E.M, n = 4) α1D [3] | EC50 [5] | IC50 [6] | IC50 [7] | IC50 [8] | IC50 [9] | further results |
| --- | --- | --- | --- | --- | --- | --- | --- | --- | --- |
| COc1ccccc1N1CCN(CCCNc2c(C)c(=O)n(C)c(=O)n2C)CC1 [5-Methylurapidil, 5-methylurapidil] | 0.83 ± 0.03 | 0.63 ± 0.07 | 0.51 ± 0.09 | – | – | – | – | – | – |
| Cc1ccc(S(=O)(=O)OCCc2ccc(CN3C(=O)c4ccccc4C3=O)cc2)cc1 [CHE3] | – | – | – | 47.2 µM | 11.1 ± 1.07 µM | 47 ± 1.24 µM | 91.3 ± 1.13 µM | 30.7 ± 0.66 µM | EC50 [4]: 42.7 µM; cytotoxic effects on human epithelial prostate normal cells RWPE-1 [9]: exhibited cytotoxic effects; EC50 [10]: 25.3 to 47.2 µM; subtype selectivity in the HTS assay ([10]; α1A, α1B, α1D): did not display significant subtype selectivity; IC50 [11]: 11.1 to 91.3 µM |
| Cc1ccc(S(=O)(=O)OCCc2ccc(COc3ccc4c(c3)OCO4)cc2)cc1 [CHK3] | – | – | – | 34.3 µM | 39.1 ± 0.81 µM | 51.5 ± 1.08 µM | 55.3 ± 1.09 µM | 31.7 ± 0.61 µM | EC50 [12]: 42.5 µM; EC50 [4]: 35.2 µM; cytotoxic effects on human epithelial prostate normal cells RWPE-1 [9]: exhibited cytotoxic effects; EC50 [10]: 25.3 to 47.2 µM; IC50 [11]: 11.1 to 91.3 µM |
| COc1cc2nc(N3CCN(C(=O)OCc4ccccc4)[C@H](C(=O)NC(C)(C)C)C3)nc(N)c2cc1OC [Compound L-765314] | 0.53 ± 0.08 | 0.86 ± 0.01 | 0.30 ± 0.11 | – | – | – | – | – | – |
| COc1ccccc1N1CCN(CC(O)COc2cccc3ccccc23)CC1 (stereo not drawn) [Naftopidil, naftopidil, reference compound] | 0.79 ± 0.09 | 0.77 ± 0.02 | 0.93 ± 0.01 | – | 34.58 ± 0.31 µM | 22.4 ± 0.61 µM | 42.1 ± 0.79 µM | 52 ± 1.51 µM | – |
